Data taken from patent US7547519B2, “Methods of diagnosing multidrug resistant tuberculosis” (The United States of America as represented by the …, priority 2000, dated 2009).
≈ marks a conversion by molar mass, not a printed value.

What was measured:
[1] = system: MSm; assay: microbe, parasite or virus in culture; type: cell-based, Mycobacterium smegmatis
[2] = system: MTb H37Rv; details: wild type MTb; cited from earlier work

SMILES: CCc1cc(C(N)=S=O)ccn1 [ETA S-oxide]
- absolute MIC compared with ETA [1]: lower
- effect of EtaR/EtaA overexpression on susceptibility [1]: EtaR conferred resistance and EtaA conferred hypersensitivity

SMILES: CCc1cc(C(N)=S)ccn1 [ETA, ethionamide]
- concentration at which growth occurred [1]: 50 µg/mL
- concentration at which transformants were able to grow [1]: greater than 200 μg/ml
- concentration with noticeable growth inhibition [1]: 2.5 µg/mL
- MIC ([1]; Mycolicibacterium smegmatis): > 62.5 µg/mL
- MIC [2]: 1.0 µg/mL (≈ 6.02 µM)

SMILES: NNC(=O)c1ccncc1 [INH, isoniazid]
- susceptibility to killing [1]: equally susceptible
